In patent EP1538164A1, “RGD targeting moiety its production and use” (Vectron Therapeutics AG, priority 2003, dated 2005):
Positions of bridges follow the written chain, without caps; N, C: chain ends. Residues, ends and D or L forms follow the SMILES beside them.

Columns and labels:
B16.F10 = assay: Competition of liposome binding by free competitors (B16.F10); design: species or system murine; conditions: RGD10 LP1-containing liposomes
Text: (§1) Thus, binding to integrin-expressing cells is specifically mediated by the RGD peptide.

HUVEC [1] = assay: Competition of liposome binding by free competitors (HUVEC); design: species or system human
Experimental: Fig. 1: Binding of carboxyfluorescein-labelled RGD-10 to HUVECs. Thin line - cells without peptide, bold line - cells incubated with CF-labelled RGD-10. Fig. 2: Titration of inhibition of RGD-10 binding by peptides RGD-10 or RGD-4C analyzed by cell ELISA. Fig. 3: Structure of lipopeptides consisting of a peptide ligand with an acetylated Nterminus, the doo spacer linked to a dipalmitoyl-glycero-succinyl-lysine anchor. Fig. 4: A) Binding of RGD10 liposomes to HUVEC or B16.F10. Liposomes containing the RGD10-LP or RGD10-LP3 lipopeptide at a conc. of 0.1 mol% (thin line), 1 mol% (normal line), or 5 mol% (bold line) were analyzed for binding to HUVECs or B16.F10 (marked with 0). Binding of liposomes lacking lipopeptides is indicated as dotted line. B.) Liposomes containing the RGD10LP3 lipopeptide at a conc. of 1 mol% were analyzed for binding to MeWo or A431 cells. Dotted line = cells alone, normal line = liposomes without lipopeptide, bold line, RGD10-LP3 liposomes. Fig. 5: Competition experiments. […] Thin line = cells alone, normal line = plus peptide or 5 doo, bold line = liposomes without competitor. Fig. 6: Cell binding and internalization of RGD-10-LP3 liposomes. Fluorescence microscopy analysis of binding of RGD10-LP3 liposomes or liposomes lacking lipopeptide (untargeted liposomes) to HUVECs at 4°C or 37°C. […] Fig. 7: Pharmacokinetic analysis of liposomes containing 1 mol% LP1, 1 mol% LP3, or 0.1 mol% LP3. Fig. 8: Antitumor effects of LP3-liposomes (Dox-LP3 liposomes) loaded with doxorubicin in comparison to untargeted liposomes (Dox liposomes) or free doxorubicin analyzed in a C26 murine colon carcinoma tumor model.
as §1

HDMEC = assay: Peptide binding to HDMEC; design: species or system human; conditions: compared with RGD-4C oxidized in two steps
Text: For further analysis we selected 2C-RGD peptide RGD-10 ([…]). The RGD-10 peptide was synthesized with the sequence […], thus lacking the C-terminal aspartate residue and resulting in a neutral net charge. […] For these experiments RGD-4C was oxidized in a two-step process to obtain disulfide bonds between C1-C4 and C2-C3 described to be essential for high affinity binding (Assa-Munt, et al. (2001) Biochemistry 40: 2373-2378). Compared to RGD-4C, RGD-10 contains only 2 cysteine residues, which facilitates synthesis of oxidized peptides using a one-step oxidation reaction. Furthermore, RGD-10 contains two aromatic residues, which allows spectrophotometrical detection at 280 nm. […] Thus, RGD-10 binds with the same affinity to integrin-expressing cells as RGD-4C, however, is much simpler to produce.

[2] = tested on: integrin-expressing cells; conditions: titration of competition of RGD-10 binding, cell ELISA, Fig. 2
HUVEC [3] = assay: Direct binding of carboxyfluorescein-labelled RGD-10 to HUVEC; design: species or system human; conditions: synthetic carboxyfluorescein-labeled RGD-10 peptide, Fig. 1
Experimental: Fig. 1: Binding of carboxyfluorescein-labelled RGD-10 to HUVECs. Thin line - cells without peptide, bold line - cells incubated with CF-labelled RGD-10. Fig. 2: Titration of inhibition of RGD-10 binding by peptides RGD-10 or RGD-4C analyzed by cell ELISA. Fig. 3: Structure of lipopeptides consisting of a peptide ligand with an acetylated Nterminus, the doo spacer linked to a dipalmitoyl-glycero-succinyl-lysine anchor. Fig. 4: A) Binding of RGD10 liposomes to HUVEC or B16.F10. Liposomes containing the RGD10-LP or RGD10-LP3 lipopeptide at a conc. of 0.1 mol% (thin line), 1 mol% (normal line), or 5 mol% (bold line) were analyzed for binding to HUVECs or B16.F10 (marked with 0). Binding of liposomes lacking lipopeptides is indicated as dotted line. B.) Liposomes containing the RGD10LP3 lipopeptide at a conc. of 1 mol% were analyzed for binding to MeWo or A431 cells. Dotted line = cells alone, normal line = liposomes without lipopeptide, bold line, RGD10-LP3 liposomes. Fig. 5: Competition experiments. […] Fluorescence microscopy analysis of binding of RGD10-LP3 liposomes or liposomes lacking lipopeptide (untargeted liposomes) to HUVECs at 4°C or 37°C. […] Fig. 8: Antitumor effects of LP3-liposomes (Dox-LP3 liposomes) loaded with doxorubicin in comparison to untargeted liposomes (Dox liposomes) or free doxorubicin analyzed in a C26 murine colon carcinoma tumor model. […]

[4] = RGD10-LP3 liposomes (1 mol% lipopeptide), 100 µM competitor, Fig. 5
[5] = RGD10 LP1-containing liposomes (Example 3)

## C[C@H](N)C(=O)N[C@H]1CSSC[C@@H](C(=O)NCC(=O)O)NC(=O)[C@H](Cc2ccccc2)NC(=O)[C@@H]2CSSC[C@H](NC(=O)[C@H](CC(=O)O)NC1=O)C(=O)N[C@@H](CCCNC(=N)N)C(=O)NCC(=O)N[C@@H](CC(=O)O)C(=O)N2 [RGD-4C, reference compound] (H-ACDCRGDCFCG-OH; disulfide 2-10, 4-8; N-terminus and C-terminus assumed)
B16.F10
  inhibition of binding of liposomes to B16.F10: completely inhibited
HUVEC [1]; [4]
  inhibition of binding of liposomes to HUVEC: completely inhibited
HUVEC [1]; [5]
  inhibition of binding of liposomes to HUVEC: completely inhibited

## C[C@H](NC(=O)CN)C(=O)N[C@@H](CCCNC(=N)N)C(=O)N[C@@H](Cc1ccc(O)cc1)C(=O)N[C@H]1CSSC[C@@H](C(=O)N[C@@H](Cc2ccccc2)C(=O)N[C@@H](CC(=O)O)C(=O)NCC(=O)O)NC(=O)[C@H](CC(=O)O)NC(=O)CNC(=O)[C@H](CCCNC(=N)N)NC1=O [RGD-10] (H-GARYCRGDCFDG-OH; disulfide 5-9; N-terminus and C-terminus assumed)
HDMEC
  binding strength to HDMEC: comparable strength as RGD-4C
[2]
  IC50: ~200 nM
B16.F10
  inhibition of binding of liposomes to B16.F10: completely inhibited
HUVEC [3]
  binding to HUVEC: Direct binding
HUVEC [1]; [4]
  inhibition of binding of liposomes to HUVEC: completely inhibited
HUVEC [1]; [5]
  inhibition of binding of liposomes to HUVEC: completely inhibited
